Measurements from paper PMC8619046, “ABCB1 and ABCG2 Control Brain Accumulation and Intestinal Disposition of the Novel ROS1/TRK/ALK Inhibitor Repotrectinib, While OATP1A/1B, ABCG2, and CYP3A Limit Its Oral Availability” (Pharmaceutics, 2021).
“And” between values parts separate entries of the source, which are not always exact repeats. Equal values may be shown once. Read-outs that look alike come from different tables or passages of the source.

Assay: 8-h pilot oral plasma pharmacokinetics and tissue distribution, female wild-type, Abcb1a/1b;Abcg2−/− and Oatp1a/1b−/− mice
Assay type: in vivo
Settings: Table S1, 10 mg/kg oral, 8 h; for Tmax: median (range); for Fold change (SIC (% of dose)-to-plasma ratio) / Fold change SIC (% of dose) / Fold increase Cbrain / Fold increase Cliver / Fold increase ratio (liver-to-plasma) / Fold change AUC0-8h / Fold increase ratio (brain-to-plasma): vs wild-type; for Kp at 8 h / concentration at 8 h / Cmax / AUC(0-t): female, po; for AUC(0-t): read-out: AUC0-8h
Text: Mice with similar average ages (and body weights) were randomly allocated in experimental groups as far as possible. Mice were maintained in a temperature-controlled and specific pathogen-free environment with a 12-h light and 12-h dark cycle and they received a standard diet (Transbreed, SDS Diets, Technilab-BMI, Someren, The Netherlands) and acidified water ad libitum. […] Given the objective main readout (repotrectinib plasma and tissue concentrations as measured by LC-MS/MS), no blinding method was applied.
Repotrectinib was dissolved in dimethyl sulfoxide (DMSO) at a concentration of 50 mg/mL. This stock solution was first diluted 3-fold with ethanol/polysorbate 80 (1/1; v/v), followed by further dilution with a 10 mM hydrochloric acid solution, yielding a dosing solution of 1 mg/mL, freshly prepared on the day of experiment. Final concentrations of the solvents in the administration solution were: 2%, 2%, 2%, and 94% (all v/v) for DMSO, ethanol, polysorbate 80, and 10 mM hydrochloric acid solution, respectively.
To minimize variation in absorption upon oral administration, mice were fasted for 2–3 h before repotrectinib (10 mg/kg body weight) was administered by gavage into the stomach at 10 µL/g body weight, with a blunt-ended needle. Tail vein serial blood samples were collected at 0.125, 0.25, 0.5, 1, 2 and 4 h using heparinized capillary tubes (Sarstedt, Nümbrecht, Germany) for the 8-h experiments. For the 4- and 2-h experiments, blood samplings were performed from the tail vein with the same schedule, but terminated at 2 and 1 h, respectively. Eight, four, or two hours after oral administration, mice were deeply anesthetized with 2–3% isoflurane, followed by cardiac puncture to collect blood in Eppendorf tubes containing heparin as an anticoagulant. Brain, liver, spleen, kidney, lung, small intestine, and testis were rapidly collected after sacrificing the mice by cervical dislocation. The small intestinal contents (SIC) were separated from small intestinal tissue (SI), which was flushed and rinsed with cold saline to remove any residual feces. Brain, liver, spleen, kidney, lung, SI, SIC, and testis were homogenized with 1, 3, 1, 2, 1, 3, 2, and 1 mL of 2% BSA (w/v), respectively. Plasma fraction was isolated from blood by centrifugation at 9000× g for 6 min at 4 °C. All samples were stored at −30 °C until analysis.
A sensitive and specific liquid chromatography-tandem mass spectrometry method using protein precipitation pre-treatment was adopted to quantify the concentration of repotrectinib in DMEM medium, plasma samples and tissue homogenates.
A non-compartmental model using the PKSolver add-in program for Microsoft Excel was adopted to calculate the pharmacokinetic parameters of repotrectinib. Oral availability was assessed by the plasma area under the curve (AUC), calculated using repotrectinib plasma concentration-time curves with the linear trapezoidal rule without extrapolating the infinity. Statistical testing was performed in Graphpad Prism7 (Graphpad Software, La Jolla, CA, USA). All data are presented as geometric means ± SD. Heteroscedastic data were log-transformed before applying statistical analysis. When differences between two groups were compared, the two-sided unpaired Student’s t test was used. One-way analysis of variance (ANOVA) was applied when multiple groups were compared, and the Bonferroni post hoc correction was used to accommodate multiple testing. Differences were considered statistically significant when P < 0.05.

[1] = female Abcb1a/1b;Abcg2−/− mice, 10 mg/kg
[2] = FVB, mouse, plasma, 10 mg/kg, female Abcb1a/1b;Abcg2−/− mice
[3] = FVB, mouse, plasma, 10 mg/kg, female wild-type mice

Compound: C[C@H]1CNC(=O)c2cnn3ccc(nc23)N[C@H](C)c2cc(F)ccc2O1 [repotrectinib]
- Tmax (FVB, mouse, plasma, female wild-type mice, read-out: Tmax): 30 min
- SIC (% of dose) (female Abcb1a/1b;Abcg2−/− mice): 0.22 ± 0.20 % of dose
- SIC (% of dose)-to-plasma ratio (female Abcb1a/1b;Abcg2−/− mice): 0.48 ± 0.43 ·10-3
- Fold change (SIC (% of dose)-to-plasma ratio) (female Abcb1a/1b;Abcg2−/− mice): 0.054
- Fold change SIC (% of dose) (female Abcb1a/1b;Abcg2−/− mice): 0.11
- Fold increase Cbrain (female Abcb1a/1b;Abcg2−/− mice): 19.5
- Fold increase Cliver (female Abcb1a/1b;Abcg2−/− mice): 1.50
- Fold increase ratio (liver-to-plasma) (female Abcb1a/1b;Abcg2−/− mice): 0.79
- Fold change AUC0-8h [1]: 1.42 and 1.4
- Fold increase ratio (brain-to-plasma) [1]: 9.46 and 9.5
- SIC (% of dose) (female Oatp1a/1b−/− mice): 5.59 ± 3.32 % of dose
- SIC (% of dose)-to-plasma ratio (female Oatp1a/1b−/− mice): 14.5 ± 8.9 ·10-3
- Fold change (SIC (% of dose)-to-plasma ratio) (female Oatp1a/1b−/− mice): 1.63
- Fold change SIC (% of dose) (female Oatp1a/1b−/− mice): 2.69
- Fold increase Cbrain (female Oatp1a/1b−/− mice): 3.64
- Fold increase Cliver (female Oatp1a/1b−/− mice): 1.43
- Fold increase ratio (brain-to-plasma) (female Oatp1a/1b−/− mice): 1.85
- Fold increase ratio (liver-to-plasma) (female Oatp1a/1b−/− mice): 0.86
- Fold change AUC0-8h (female Oatp1a/1b−/− mice, 10 mg/kg): 1.51 and 1.5
- SIC (% of dose) (female wild-type mice): 2.08 ± 1.35 % of dose
- SIC (% of dose)-to-plasma ratio (female wild-type mice): 8.87 ± 1.83 ·10-3
- Fold change (SIC (% of dose)-to-plasma ratio) (female wild-type mice): 1.00
- Fold change AUC0-8h (female wild-type mice): 1.00
- Fold change SIC (% of dose) (female wild-type mice): 1.00
- Fold increase Cbrain (female wild-type mice): 1.00
- Fold increase Cliver (female wild-type mice): 1.00
- Fold increase ratio (brain-to-plasma) (female wild-type mice): 1.00
- Fold increase ratio (liver-to-plasma) (female wild-type mice): 1.00
- Tmax (female Abcb1a/1b;Abcg2−/− mice): 0.5 (0 .5-1) h
- Tmax (female Oatp1a/1b−/− mice): 0.5 (0.25-1) h
- Kp at 8 h (FVB, mouse, brain, 10 mg/kg, female Abcb1a/1b;Abcg2−/− mice, read-out: Brain-to-plasma ratio): 2.46 ± 0.31
- concentration at 8 h (FVB, mouse, brain, 10 mg/kg, female Abcb1a/1b;Abcg2−/− mice, read-out: Cbrain): 1000 ± 320 ng/g
- Kp at 8 h (FVB, mouse, brain, 10 mg/kg, female Oatp1a/1b−/− mice, read-out: Brain-to-plasma ratio): 0.48 ± 0.12
- concentration at 8 h (FVB, mouse, brain, 10 mg/kg, female Oatp1a/1b−/− mice, read-out: Cbrain): 186 ± 51.4 ng/g
- Kp at 8 h (FVB, mouse, brain, 10 mg/kg, female wild-type mice, read-out: Brain-to-plasma ratio): 0.26 ± 0.12
- concentration at 8 h (FVB, mouse, brain, 10 mg/kg, female wild-type mice, read-out: Cbrain): 51.2 ± 17.8 ng/g
- concentration at 8 h (FVB, mouse, liver, 10 mg/kg, female Abcb1a/1b;Abcg2−/− mice, read-out: Cliver): 1780 ± 770 ng/mL
- Kp at 8 h (FVB, mouse, liver, 10 mg/kg, female Abcb1a/1b;Abcg2−/− mice, read-out: Liver-to-plasma ratio): 4.21 ± 0.35
- concentration at 8 h (FVB, mouse, liver, 10 mg/kg, female Oatp1a/1b−/− mice, read-out: Cliver): 1750 ± 450 ng/mL
- Kp at 8 h (FVB, mouse, liver, 10 mg/kg, female Oatp1a/1b−/− mice, read-out: Liver-to-plasma ratio): 4.59 ± 1.28
- concentration at 8 h (FVB, mouse, liver, 10 mg/kg, female wild-type mice, read-out: Cliver): 1220 ± 650 ng/mL
- Kp at 8 h (FVB, mouse, liver, 10 mg/kg, female wild-type mice, read-out: Liver-to-plasma ratio): 5.36 ± 0.54
- Cmax [2]: 6190 ± 440 ng/mL
- AUC(0-t) [2]: 23100 ± 2110 ng·h/mL
- AUC(0-t) (FVB, mouse, plasma, 10 mg/kg, female Oatp1a/1b−/− mice): 24600 ± 3270 ng·h/mL
- Cmax [3]: 4800 ± 1780 ng/mL
- AUC(0-t) [3]: 16300 ± 6350 ng·h/mL
- Cmax (Oatp1a/1b−/−, >99% FVB background, mouse, plasma, 10 mg/kg, female Oatp1a/1b−/− mice): 6150 ± 800 ng/mL
